Active and inactive are the calls of the source. The rule behind the calls is not given here. Where a SMILES comes first, the peptide text is derived from it.
Experiments:
[1] = tested on: Mus musculus; assay: Reduction in food intake in C57BL/6 mouse model of diet induced obesity at 25 nmol/kg, sc BID for 1 week relative to control; type: functional, organism-based; settings: time 1.0 weeks
[2] = tested on: Mus musculus; assay: Hypoglycemic activity in non-fasted db/db mouse assessed as decrease in blood glucose concentration at 25 nmol/kg, sc by OGTT method; type: functional, organism-based
[3] = molecular target: T1, Glucagon-like peptide 1 receptor (Homo sapiens, UniProt P43220); assay: Agonist activity at human GLP-1R expressed in HEK293 cells assessed as stimulation of cAMP accumulation incubated for 20 mins in presence of 0% HSA; type: functional, cell-based
T1 sequence (P43220 whole entry): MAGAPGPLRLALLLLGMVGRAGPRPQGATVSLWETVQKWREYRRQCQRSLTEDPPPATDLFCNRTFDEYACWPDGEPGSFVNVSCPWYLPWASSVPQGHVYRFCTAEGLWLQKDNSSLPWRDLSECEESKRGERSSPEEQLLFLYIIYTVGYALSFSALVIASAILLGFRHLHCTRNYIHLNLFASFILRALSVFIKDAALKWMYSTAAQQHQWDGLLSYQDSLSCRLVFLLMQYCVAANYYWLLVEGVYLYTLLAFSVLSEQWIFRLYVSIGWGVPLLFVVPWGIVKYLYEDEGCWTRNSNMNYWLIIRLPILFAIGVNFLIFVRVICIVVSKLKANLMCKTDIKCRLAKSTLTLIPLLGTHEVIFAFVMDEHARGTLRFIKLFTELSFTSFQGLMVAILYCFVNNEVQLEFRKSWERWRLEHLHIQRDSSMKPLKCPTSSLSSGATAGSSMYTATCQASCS

[4] = molecular target: T1, Glucagon-like peptide 1 receptor; assay: Ratio of EC50 for agonist activity at human GLP-1R expressed in HEK293 cells in presence of 4.4% HSA to EC50 for agonist activity at human GLP-1R expressed in HEK293 cells in presence of 0% HSA; type: cell-based
[5] = molecular target: serum albumin (Homo sapiens, UniProt P02768); assay: Binding affinity to human serum albumin in PBS pH 7.4 at 100 ug/mL incubated for 2 hrs by LC-MS/MS analysis relative to control; type: ADME; settings: at 100 µg/mL, read-out: PB (converted)
Sequence of serum albumin (P02768 whole entry): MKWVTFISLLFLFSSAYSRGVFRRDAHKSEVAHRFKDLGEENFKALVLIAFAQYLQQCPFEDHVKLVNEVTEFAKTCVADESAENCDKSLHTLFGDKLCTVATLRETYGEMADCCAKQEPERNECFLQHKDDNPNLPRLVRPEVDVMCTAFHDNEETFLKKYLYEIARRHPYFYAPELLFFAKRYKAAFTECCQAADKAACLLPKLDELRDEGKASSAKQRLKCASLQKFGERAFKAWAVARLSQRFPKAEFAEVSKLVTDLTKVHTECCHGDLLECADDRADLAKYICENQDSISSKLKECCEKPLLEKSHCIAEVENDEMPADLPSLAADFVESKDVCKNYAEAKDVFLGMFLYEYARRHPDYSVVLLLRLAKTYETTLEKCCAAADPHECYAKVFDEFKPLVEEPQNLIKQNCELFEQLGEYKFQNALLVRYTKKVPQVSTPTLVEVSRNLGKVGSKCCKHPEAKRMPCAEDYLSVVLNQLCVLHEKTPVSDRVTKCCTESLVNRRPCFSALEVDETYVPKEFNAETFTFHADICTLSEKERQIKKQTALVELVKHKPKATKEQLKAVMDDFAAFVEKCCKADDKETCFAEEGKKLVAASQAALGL

[6] = tested on: Mus musculus; assay: Reduction in fasted hyperglycemia in C57BL/6 mouse model of diet induced obesity at 25 nmol/kg, sc BID for 1 week relative to control; type: functional, organism-based; settings: time 1.0 weeks
[7] = tested on: Mus musculus; assay: Reduction in body weight in C57BL/6 mouse model of diet induced obesity at 25 nmol/kg, sc BID for 1 week relative to control; type: functional; set-up: scale not given: the % may be the effect or the level left; settings: time 1 weeks
[8] = molecular target: T1, Glucagon-like peptide 1 receptor; assay: Agonist activity at human GLP-1R expressed in HEK293 cells assessed as stimulation of cAMP accumulation incubated for 20 mins in presence of 4.4% HSA; type: functional, cell-based

SMILES	Activity [1]	Activity [2]	EC50 [3] [nM]	Ratio EC50 [4]	fraction unbound at 2 h, 100 ug/mL [5]	Activity [6]	Activity [7] [%]	EC50 [8] [nM]
CCCCCCCCCCCCCCCC(=O)NCCCCCCNC(=O)C1CCCCNC(=O)CCN2C(=O)CC(SC[C@H](NC(=O)[C@H](Cc3ccc(O)cc3)NC(=O)[C@H](CCC(=O)O)NC(=O)[C@@H](NC(=O)[C@@H](NC(=O)[C@H](CC(=O)O)NC(=O)[C@H](CC(N)=O)NC(=O)[C@@H](NC(=O)[C@H](Cc3ccc(O)cc3)NC(=O)[C@@H](NC(=O)CNC(=O)[C@H](CCC(=O)O)NC(=O)C(C)(C)NC(=O)[C@@H](N)Cc3c[nH]cn3)[C@@H](C)O)[C@@H](C)O)C(C)C)[C@@H](C)O)C(=O)N[C@@H](CCC(=O)O)C(=O)N[C@@H](CCC(=O)O)C(=O)N[C@@H](CCC(=O)O)C(=O)N[C@@H](C)C(=O)N[C@@H](C)C(=O)N[C@@H](CCCCN)C(=O)N[C@H](C(=O)N[C@@H](Cc3ccccc3)C(=O)N[C@H](C(=O)N[C@@H](CCC(=O)O)C(=O)N[C@@H](Cc3c[nH]c4ccccc34)C(=O)N[C@@H](CC(C)C)C(=O)N[C@H](C(=O)N[C@@H](CCCCN)C(=O)NCC(=O)N[C@@H](CCCCN)C(=O)N3CCC[C@H]3C(=O)N[C@@H](CO)C(=O)N[C@@H](CO)C(=O)NCC(=O)N[C@@H](C)C(=O)N3CCC[C@H]3C(=O)N3CCC[C@H]3C(=O)N3CCC[C@H]3C(=O)N[C@@H](CO)C(N)=O)[C@@H](C)CC)[C@@H](C)CC)CSC3CC(=O)N(CCC(=O)N1)C3=O)C2=O (stereo partly specified) (HELM PEPTIDE1{H.[Aib].E.G.T.Y.T.N.D.V.T.E.Y.C.E.E.E.A.A.K.C.F.I.E.W.L.I.K.G.K.P.S.S.G.A.P.P.P.S.[am]}|CHEM1{[CCCCCCCCCCCCCCCC(=O)NCCCCCCNC(=O)C(CCCCNC(=O)CCN1C(=O)CC([*:1])C1=O)NC(=O)CCN1C(=O)CC([*:2])C1=O]}$PEPTIDE1,CHEM1,14:R3-1:R1|PEPTIDE1,CHEM1,21:R3-1:R2$$$V2.0)	Active	Active	0.041	22.2	0.162	Active	14.4	0.91
CCCCCCCCCCCCCCCC(=O)NCCCCCCNC(=O)C1CCCCNC(=O)CCN2C(=O)CC(SC[C@H](NC(=O)[C@H](CCCCN)NC(=O)[C@H](C)NC(=O)[C@H](C)NC(=O)[C@H](CCC(=O)O)NC(=O)[C@H](CCC(=O)O)NC(=O)[C@H](CCC(=O)O)NC(=O)[C@H](CC(C)C)NC(=O)[C@H](Cc3ccc(O)cc3)NC(=O)[C@H](CCC(=O)O)NC(=O)[C@@H](NC(=O)[C@@H](NC(=O)[C@H](CC(=O)O)NC(=O)[C@H](CC(N)=O)NC(=O)[C@@H](NC(=O)[C@H](Cc3ccc(O)cc3)NC(=O)[C@@H](NC(=O)CNC(=O)[C@H](CCC(=O)O)NC(=O)C(C)(C)NC(=O)[C@@H](N)Cc3c[nH]cn3)[C@@H](C)O)[C@@H](C)O)C(C)C)[C@@H](C)O)C(=O)N[C@@H](Cc3ccccc3)C(=O)N[C@@H]([C@@H](C)CC)C(=O)N[C@@H](CCC(=O)O)C(=O)N[C@@H](Cc3c[nH]c4ccccc34)C(=O)N[C@@H](CC(C)C)C(=O)N[C@@H]([C@@H](C)CC)C(=O)N[C@H](C(=O)NCC(=O)N[C@@H](CCCCN)C(=O)N3CCC[C@H]3C(=O)N[C@@H](CO)C(=O)N[C@@H](CO)C(=O)NCC(=O)N[C@@H](C)C(=O)N3CCC[C@H]3C(=O)N3CCC[C@H]3C(=O)N3CCC[C@H]3C(=O)N[C@@H](CO)C(N)=O)CSC3CC(=O)N(CCC(=O)N1)C3=O)C2=O (stereo partly specified) (HELM PEPTIDE1{H.[Aib].E.G.T.Y.T.N.D.V.T.E.Y.L.E.E.E.A.A.K.C.F.I.E.W.L.I.C.G.K.P.S.S.G.A.P.P.P.S.[am]}|CHEM1{[CCCCCCCCCCCCCCCC(=O)NCCCCCCNC(=O)C(CCCCNC(=O)CCN1C(=O)CC([*:1])C1=O)NC(=O)CCN1C(=O)CC([*:2])C1=O]}$PEPTIDE1,CHEM1,21:R3-1:R1|PEPTIDE1,CHEM1,28:R3-1:R2$$$V2.0)	Active	Active	0.054	24.1	0.15	Active	15.2	1.3

From ChEMBL document CHEMBL4699602, “Stapled and Xenopus Glucagon-Like Peptide 1 (GLP-1)-Based Dual GLP-1/Gastrin Receptor Agonists with Improved Metabolic Benefits in Rodent Models of Obesity and Diabetes” (J Med Chem, 2020)
